Paper PMC4006730, “Trans-spliced Heat Shock Protein 90 Modulates Encystation in Giardia lamblia” (PLoS Neglected Tropical Diseases, 2014)

How the values were obtained:
Format in all cases: binding
[1] = molecular target: T1, GlHsp90 (trans-spliced full-length heat shock protein 90) (Giardia duodenalis, UniProt A0A644F9H9); assay: intrinsic fluorescence quenching; also inhibits the purified ATPase (EC50 […])
T1 construct: gene GL50803_0098054; full length Hsp90, N terminus 6x His-tag (Methods text says purified HspN)
T1 sequence (A0A644F9H9 entry or part of it): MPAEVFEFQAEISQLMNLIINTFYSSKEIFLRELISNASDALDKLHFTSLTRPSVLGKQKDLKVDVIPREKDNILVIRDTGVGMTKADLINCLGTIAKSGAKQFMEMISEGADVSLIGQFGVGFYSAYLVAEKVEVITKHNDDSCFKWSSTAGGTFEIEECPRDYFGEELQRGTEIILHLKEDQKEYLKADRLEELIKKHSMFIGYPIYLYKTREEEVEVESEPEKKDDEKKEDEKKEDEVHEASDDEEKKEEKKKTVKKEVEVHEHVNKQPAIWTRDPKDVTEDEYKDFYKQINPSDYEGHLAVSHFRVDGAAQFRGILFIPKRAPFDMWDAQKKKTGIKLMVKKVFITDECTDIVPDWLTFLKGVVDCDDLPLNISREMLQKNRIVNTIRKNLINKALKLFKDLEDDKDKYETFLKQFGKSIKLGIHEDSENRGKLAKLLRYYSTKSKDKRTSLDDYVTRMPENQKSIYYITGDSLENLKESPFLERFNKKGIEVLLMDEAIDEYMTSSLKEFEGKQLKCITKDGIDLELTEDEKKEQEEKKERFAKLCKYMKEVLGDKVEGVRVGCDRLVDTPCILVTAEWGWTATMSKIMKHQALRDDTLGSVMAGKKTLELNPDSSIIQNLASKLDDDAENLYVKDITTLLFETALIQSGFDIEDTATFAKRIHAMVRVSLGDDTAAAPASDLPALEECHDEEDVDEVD

[2] = molecular target: T1, GlHsp90 (trans-spliced full-length heat shock protein 90); assay: intrinsic fluorescence quenching; also ATPase by TLC with radiolabelled ATP (Km […])
[3] = molecular target: T1, GlHsp90 (trans-spliced full-length heat shock protein 90); assay: intrinsic tryptophan fluorescence quenching (ex […] nm, em […] nm), single-site fit

C=CCNC1=C2C[C@@H](C)C[C@H](OC)[C@H](O)[C@@H](C)/C=C(\C)[C@H](OC(N)=O)[C@@H](OC)/C=C\C=C(/C)C(=O)NC(=CC1=O)C2=O [17AAG]
Kd [1]: 17.1 µM

Nc1ncnc2c1ncn2[C@@H]1O[C@H](COP(=O)(O)OP(=O)(O)OP(=O)(O)O)[C@@H](O)[C@H]1O [ATP]
Kd [2]: 630 µM

COC1=C2C[C@@H](C)C[C@H](OC)[C@H](O)[C@@H](C)/C=C(\C)[C@H](OC(N)=O)[C@@H](OC)/C=C\C=C(/C)C(=O)NC(=CC1=O)C2=O [GA, Geldanamycin]
Kd [3]: 1.5 µM
